Assay results: article PMC7767178 (International Journal of Molecular Sciences, 2020)
Values after ≈ are worked out from the molar mass of the structure shown. Values joined by “and” are separate entries in the source; they are usually repeats but may differ in a detail not shown here. Identical values can stand only once. Like-named read-outs stand apart in the source and are kept apart here.

Legend:
S. hyicus 437-2 = assay type: cell-based
S. pullorum CVCC1809 = test: microbe, parasite or virus in culture; assay type: cell-based
From the text: (§1) All experiments were repeated three times.

Escherichia coli CVCC195 = test: microbe, parasite or virus in culture; assay type: cell-based
From the text: as §1

[1] = test system: Candida albicans CMCC98001; test: microbe, parasite or virus in culture; assay type: cell-based
From the text: as §1

S. pullorum CVCC533 = test: microbe, parasite or virus in culture; assay type: cell-based
From the text: as §1

S. enteritidis CVCC3377 = test: microbe, parasite or virus in culture; assay type: cell-based
From the text: as §1

E. coli CVCC1515 = test: microbe, parasite or virus in culture; assay type: cell-based
From the text: as §1

E. coli CVCC25922 = test: microbe, parasite or virus in culture; assay type: cell-based
From the text: as §1

[2] = test system: Staphylococcus aureus ATCC43300; test: microbe, parasite or virus in culture; assay type: cell-based
From the text: as §1

S. pullorum CVCC1789 = test: microbe, parasite or virus in culture; assay type: cell-based
From the text: as §1

A. veronii X-1-06909 = test: microbe, parasite or virus in culture; assay type: cell-based
From the text: as §1

[3] = test system: A. veronii ACCC61732 in biofilm; assay type: cell-based; conditions: 2 h
Protocol: The mid-log phase A. veronii ACCC61732 cells (1 × 10^8 CFU/mL) were inoculated into in the 96-well plates and cultured for 24 h at 37 °C. The plates were washed twice with PBS. […] PBS was used as the negative control. The plates were treated with ultrasound for 5 min and the viable bacteria were counted on the TSA plates.

A. veronii ACCC61732 [4] = test: Post-antibiotic effect (PAE); assay type: cell-based; conditions: for PAE: 2 h exposure, 1000-fold dilution, 37 °C, triplicate
Protocol: The samples were taken from flasks for counting each hour until bacterial cultures became turbid. The untreated bacteria severed as controls. The PAE was calculated using the following equation: PAE = T − C, where T is the time (h) required for the CFU in the test culture to increase by 10-fold from the count immediately after the drug removal and C is the corresponding time (h) for the control. The experiment was performed in triplicate.

A. veronii ACCC61732 [5] = test: Outer membrane permeabilization, NPN assay; assay type: cell-based; conditions: NPN fluorescence, 1×–4× MIC
Protocol: The outer membrane permeabilization abilities of peptides were determined using the fluorescent NPN assay. Mid-log phase A. veronii ACCC61732 was collected by centrifugation, washed twice, and then suspended in N-2-hydroxyethylpiperazine-n-2-ethane sulfonic acid (HEPES) buffer (pH 7.4) to an OD600nm = 0.4. […] Fluorescence intensity was recorded until no further increase with a microplate reader (excitation/emission, 328/438 nm).

E. coli CVCCO157 = test: MIC, microtiter broth dilution; assay type: cell-based; conditions: 37 °C, 16–18 h, three experiments
From the text: as §1

A. veronii ACCC61732 [6] = test: Inner membrane permeability, PI staining, flow cytometry; assay type: cell-based
Protocol: To analyze effects of peptides on the inner membrane, A. veronii ACCC61732 cells were cultured to mid-log phase at 37 °C in MHB medium, washed thrice with PBS, and resuspended in the PBS buffer to 1 × 10^8 CFU/mL. […] After fixation with PI, the samples were detected by a fluorescent inverted microscope and FACS Calibur Flow Cytometer (BD, San Jose, CA, USA), respectively. Cell Quest Pro software (BD, San Jose, CA, USA) was used for the data analysis.

A. veronii ACCC61732 [7] = test: Time-killing curves; assay type: cell-based; conditions: 2× MIC; 1 × 10^5 CFU/mL, colony counting, 0–24 h
Protocol: Time-killing curves were performed as previously described. […] The sample of 100 μL was taken from each flask at 0, 0.5, 1, 2, 4, 6, 8, 10, 20, and 24 h, respectively, and serially diluted for colony counting. PBS and CIP were used as the negative and positive control, respectively.

A. veronii ACCC61732 [8] = test: Resistance development, 30 serial passages; assay type: cell-based; conditions: A. veronii ACCC61732, 30 passages (30 days)
Protocol: The development of bacterial resistance of peptides was performed by the MIC assays. […] GEN, CIP, and PMB were used as controls. […] The MIC values were measured as described above. The serial passaging was repeated for 30 days.

IL-10 = test: Serum cytokine, ELISA, peritonitis model; assay type: in vivo; conditions: 1 μmol/kg, 24 h after treatment, range over mice
Protocol: Sera and organs (livers, kidneys, spleens, and lungs) were collected from the mice at 24 h post-treatment. The organs were homogenized in sterile PBS to evaluate bacterial translocation by colony counting. The levels of cytokines (TNF-α, IL-1β, IL-6, and IL-10) in sera were detected using the ELISA kits.

Work on CC(C)[C@@H]1NC(=O)CNC(=O)[C@H](CC(N)=O)NC(=O)[C@H](CCCNC(=N)N)NC(=O)[C@H](Cc2ccc(O)cc2)NC(=O)[C@H](C(C)C)NC(=O)[C@@H](NC(=O)[C@@H](NC(=O)[C@H](CC(N)=O)NC(=O)[C@H](Cc2c[nH]c3ccccc23)NC(=O)[C@H](C)NC(=O)[C@H](Cc2ccccc2)NC(=O)[C@H](CCCN)N=C(N(C)C)N(C)C)C(C)C)CSSC[C@@H](C(=O)N[C@@H](Cc2c[nH]cn2)C(=O)N[C@@H](CCCNC(=N)N)C(=O)N[C@@H](CCCNC(=N)N)C(=O)N[C@@H](C)C(=O)N[C@@H](CC(N)=O)C(N)=O)NC(=O)[C@H](C(C)C)NC(=O)[C@H](CCCNC(=N)N)NC1=O (stereo in doubt) [Guo-N6NH2] yielded an MIC (S. hyicus 437-2) of 12.16 µM, an MIC (S. hyicus 437-2; S. hyicus 437-2 (clinical isolate, pig farm), broth dilution, 37 °C, 16–18 h, three experiments) of 32 µg/mL and an MIC (S. pullorum CVCC1809; S. pullorum CVCC1809, broth dilution, 37 °C, 16–18 h, three experiments) of 4 µg/mL. It also gave an MIC (Escherichia coli CVCC195; Escherichia coli CVCC195, broth dilution, 37 °C, 16–18 h, three experiments) of 4 µg/mL, an MIC ([1]; CMCC98001, read-out: MIC) of over 48.6 µM and an MIC (S. pullorum CVCC533; CVCC533, read-out: MIC) of 3.04 µM. For the same compound, the MIC (S. pullorum CVCC533; S. pullorum CVCC533, broth dilution, 37 °C, 16–18 h, three experiments) was 8 µg/mL, the MIC (S. enteritidis CVCC3377; CVCC3377, read-out: MIC) was 0.76 µM and the MIC (S. enteritidis CVCC3377; S. enteritidis CVCC3377, broth dilution, 37 °C, 16–18 h, three experiments) was 2 µg/mL. For the same compound, the MIC (E. coli CVCC1515; CVCC1515, read-out: MIC) was 0.76 µM, the MIC (E. coli CVCC1515; E. coli CVCC1515, broth dilution, 37 °C, 16–18 h, three experiments) was 2 µg/mL and the MIC (E. coli CVCC25922; E. coli CVCC25922, broth dilution, 37 °C, 16–18 h, three experiments) was 4 µg/mL. For the same compound, the MIC ([2]; ATCC43300, read-out: MIC) was 6.08 µM, the MIC ([2]; Staphylococcus aureus ATCC43300, broth dilution, 37 °C, 16–18 h, three experiments) was 16 µg/mL and the MIC (S. pullorum CVCC1789; CVCC1789, read-out: MIC) was 3.04 µM. It also gave an MIC (S. pullorum CVCC1789; S. pullorum CVCC1789, broth dilution, 37 °C, 16–18 h, three experiments) of 8 µg/mL, an MIC (A. veronii X-1-06909; A. veronii X-1-06909, broth dilution, 37 °C, 16–18 h, three experiments) of 16 µg/mL and an MIC (A. veronii X-1-06909; read-out: MIC) of 6.08 µM. The “bacteria in biofilm killed” value [3]; 8 was 46.26%, the “bacteria in biofilm killed” value [3]; 16 was 54.31% and the PAE (A. veronii ACCC61732 [4]; 1× MIC) was 0.62 ± 0.01 h. The “PAEs, range over 1×–4× MIC” value (A. veronii ACCC61732 [4]; 1× to 4× MIC) was 0.62 to 2.07 h, the PAE (A. veronii ACCC61732 [4]; 2× MIC) was 1.32 ± 0.08 h and the PAE (A. veronii ACCC61732 [4]; 4× MIC) was 2.07 ± 0.08 h. For the same compound, the “ability to penetrate the outer membrane” value (A. veronii ACCC61732 [5]) was “higher ability to penetrate the outer membrane than N6NH2”, the MIC (E. coli CVCCO157) was 4 µg/mL (≈ 1.52 µM) and the “Permeability (PI-positive cells)” value (A. veronii ACCC61732 [6]; 1× MIC, 0.5 h) was 0.63%. The “Permeability (PI-positive cells)” value (A. veronii ACCC61732 [6]; 1× MIC, 2 h) was 4.96%, the “Permeability (PI-positive cells)” value (A. veronii ACCC61732 [6]; 2× MIC, 0.5 h) was 0.55% and the “Permeability (PI-positive cells)” value (A. veronii ACCC61732 [6]; 2× MIC, 2 h) was 1.91%. For the same compound, the “Permeability (PI-positive cells)” value (A. veronii ACCC61732 [6]; 4× MIC, 0.5 h) was 0%, the “Permeability (PI-positive cells)” value (A. veronii ACCC61732 [6]; 4× MIC, 2 h) was 2.16% and the “time to completely kill A. veronii ACCC61732” value (A. veronii ACCC61732 [7]) was 6 h. For the same compound, the “increase of MIC after 30 serial passages” value (A. veronii ACCC61732 [8]) was “three-fold”.

For O=C(O)c1cn(C2CC2)c2cc(N3CCNCC3)c(F)cc2c1=O [CIP, ciprofloxacin, reference compound], the “serum level of IL-10” value (IL-10) was 10.1 to 16.41 pg/mL, the MIC (S. pullorum CVCC1809; Salmonella enterica, PULLORUM) was under 0.0625 µg/mL and the MIC (S. pullorum CVCC1809; Salmonella enterica, S. pullorum CVCC1809, broth dilution, 37 °C, 16–18 h, three experiments, read-out: MIC) was under 0.19 µM. For the same compound, the MIC (Escherichia coli CVCC195; Escherichia coli CVCC195, broth dilution, 37 °C, 16–18 h, three experiments, read-out: MIC) was under 0.19 µM, the MIC (Escherichia coli CVCC195; Escherichia coli, CVCC195) was under 0.0625 µg/mL and the MIC ([1]; Candida albicans CMCC98001, broth dilution, 37 °C, 16–18 h, three experiments, read-out: MIC) was over 386 µM. It also gave an MIC ([1]; Candida albicans, CMCC98001) of over 128 µg/mL, an MIC (S. pullorum CVCC533; Salmonella enterica, PULLORUM) of under 0.0625 µg/mL and an MIC (S. pullorum CVCC533; Salmonella enterica, S. pullorum CVCC533, broth dilution, 37 °C, 16–18 h, three experiments, read-out: MIC) of under 0.19 µM. For the same compound, the MIC (S. enteritidis CVCC3377; Salmonella enterica, ENTERITIDIS) was under 0.0625 µg/mL, the MIC (S. enteritidis CVCC3377; Salmonella enterica, S. enteritidis CVCC3377, broth dilution, 37 °C, 16–18 h, three experiments, read-out: MIC) was under 0.19 µM and the MIC (E. coli CVCC1515; Escherichia coli, CVCC1515) was under 0.0625 µg/mL. The MIC (E. coli CVCC1515; Escherichia coli, E. coli CVCC1515, broth dilution, 37 °C, 16–18 h, three experiments, read-out: MIC) was under 0.19 µM, the MIC (E. coli CVCC25922; Escherichia coli, CVCC25922) was under 0.0625 µg/mL and the MIC (E. coli CVCC25922; Escherichia coli, E. coli CVCC25922, broth dilution, 37 °C, 16–18 h, three experiments, read-out: MIC) was under 0.19 µM. For the same compound, the MIC ([2]; Staphylococcus aureus ATCC43300, broth dilution, 37 °C, 16–18 h, three experiments, read-out: MIC) was 0.25 µg/mL and 0.75 µM, the MIC (S. pullorum CVCC1789; Salmonella enterica, PULLORUM) was under 0.0625 µg/mL and the MIC (S. pullorum CVCC1789; Salmonella enterica, S. pullorum CVCC1789, broth dilution, 37 °C, 16–18 h, three experiments, read-out: MIC) was under 0.19 µM. For the same compound, the MIC (A. veronii X-1-06909; Aeromonas veronii, X106909, A. veronii X-1-06909, broth dilution, 37 °C, 16–18 h, three experiments, read-out: MIC) was 0.25 µg/mL and 0.75 µM, the “bacteria in biofilm killed” value ([3]; 8× MIC, 37 °C, colony counting) was 47.46% and the “bacteria in biofilm killed” value ([3]; 16× MIC, 37 °C, colony counting) was 52.32%. The PAE (A. veronii ACCC61732 [4]; 1× MIC) was 0.6 ± 0.01 h, the PAE (A. veronii ACCC61732 [4]; 2× MIC) was 0.63 ± 0.1 h and the PAE (A. veronii ACCC61732 [4]; 4× MIC) was 0.67 h and 0.67 ± 0.02 h. For the same compound, the MIC (E. coli CVCCO157; Escherichia coli, read-out: MIC) was < 0.0625 µg/mL and < 0.19 µM, the “time to completely kill A. veronii ACCC61732” value (A. veronii ACCC61732 [7]) was “started to regrow after 2 h” and the “increase of MIC after 30 serial passages” value (A. veronii ACCC61732 [8]) was 15 fold.
